test system: not listed separately; assay: Ratio of antinociceptive activity measured using mouse acetylcholine induced abdominal constriction test by s.c. administration to that done by i.c.v.; assay type: functional, Abdomen; details: not given

Row | SMILES | Ratio
1 | CC(=O)N1CCN(C(=O)Cc2ccc([N+](=O)[O-])cc2)C(CN2CC[C@H](O)C2)C1 (some centres not stated) | 200
2 | CC(=O)N1CCN(C(=O)Cc2ccc(C(F)(F)F)cc2)C(CN2CC[C@H](O)C2)C1 (some centres not stated) | 95
3 | CC(=O)N1CCN(C(=O)Cc2cc(F)cc(F)c2)C(CN2CC[C@H](O)C2)C1 (some centres not stated) | 417
4 | COC(=O)N1CCN(C(=O)Cc2ccc(Cl)c(Cl)c2)[C@H](CN2CCCC2)C1 | 1.5
5 | CC(=O)N1CCN(C(=O)Cc2ccc(Cl)c(Cl)c2)C(CN2CC[C@H](O)C2)C1 (some centres not stated) | 100
6 | CC(=O)N1CCN(C(=O)Cc2ccc(S(C)(=O)=O)cc2)C(CN2CC[C@H](O)C2)C1 (some centres not stated) | 2762
7 | CSc1ccc(CC(=O)N2CCN(C(C)=O)CC2CN2CC[C@H](O)C2)cc1 (some centres not stated) | 20

test system: not listed separately; assay: Lipophilicity was expressed as Log D; details: octanol/water

Row | SMILES | logD
8 | CC(=O)N1CCN(C(=O)Cc2ccccc2)C(CN2CC[C@H](O)C2)C1 (some centres not stated) | -0.1
9 | CC(=O)N1CCN(C(=O)Cc2ccc([N+](=O)[O-])cc2)C(CN2CC[C@H](O)C2)C1 (some centres not stated) | 0
10 | CC(=O)N1CCN(C(=O)Cc2ccc(C(F)(F)F)cc2)C(CN2CC[C@H](O)C2)C1 (some centres not stated) | 1
11 | COc1cccc(CC(=O)N2CCN(C(C)=O)CC2CN2CC[C@H](O)C2)c1 (some centres not stated) | 0
12 | CC(=O)N1CCN(C(=O)Cc2cc(F)cc(F)c2)C(CN2CC[C@H](O)C2)C1 (some centres not stated) | 0.3
13 | COC(=O)N1CCN(C(=O)Cc2ccc(Cl)c(Cl)c2)[C@H](CN2CCCC2)C1 | 3.1
14 | CC(=O)N1CCN(C(=O)Cc2ccc([S+](C)[O-])cc2)C(CN2CC[C@H](O)C2)C1 (some centres not stated) | < -0.5
15 | CC(=O)N1CCN(C(=O)Cc2ccc(Cl)c(Cl)c2)C(CN2CC[C@H](O)C2)C1 (some centres not stated) | 1.2
16 | COc1ccc(CC(=O)N2CCN(C(C)=O)CC2CN2CC[C@H](O)C2)cc1 (some centres not stated) | -0.1
17 | CC(=O)N1CCN(C(=O)Cc2ccc(S(C)(=O)=O)cc2)C(CN2CC[C@H](O)C2)C1 (some centres not stated) | < -0.5
18 | CSc1ccc(CC(=O)N2CCN(C(C)=O)CC2CN2CC[C@H](O)C2)cc1 (some centres not stated) | 0.6
19 | CN(C(=O)Cc1ccc(Cl)c(Cl)c1)C(CN1CCCC1)c1cccc(OCC(=O)O)c1 (configuration not stated) [ICI-204448] | 0.3

test system: Mus musculus; assay: Tested in vivo for antinociceptive activity using the mouse acetylcholine induced abdominal constriction test by intracerebroventricular (i.c.v.) administration; assay type: functional; details: Abdomen, central

Row | SMILES | ED50 [mg/kg]
20 | CC(=O)N1CCN(C(=O)Cc2cccc([N+](=O)[O-])c2)C(CN2CC[C@H](O)C2)C1 (some centres not stated) | 0.006
21 | CC(=O)N1CCN(C(=O)Cc2ccc([N+](=O)[O-])cc2)C(CN2CC[C@H](O)C2)C1 (some centres not stated) | 0.024
22 | CC(=O)N1CCN(C(=O)Cc2ccc(C(F)(F)F)cc2)C(CN2CC[C@H](O)C2)C1 (some centres not stated) | 0.008
23 | CC(=O)N1CCN(C(=O)Cc2cc(F)cc(F)c2)C(CN2CC[C@H](O)C2)C1 (some centres not stated) | 0.006
24 | COC(=O)N1CCN(C(=O)Cc2ccc(Cl)c(Cl)c2)[C@H](CN2CCCC2)C1 | 0.0002
25 | CC(=O)N1CCN(C(=O)Cc2ccc(Cl)c(Cl)c2)C(CN2CC[C@H](O)C2)C1 (some centres not stated) | 0.007
26 | CC(=O)N1CCN(C(=O)Cc2ccc(S(C)(=O)=O)cc2)C(CN2CC[C@H](O)C2)C1 (some centres not stated) | 0.0008
27 | CSc1ccc(CC(=O)N2CCN(C(C)=O)CC2CN2CC[C@H](O)C2)cc1 (some centres not stated) | 0.075
28 | CN(C(=O)Cc1ccc(Cl)c(Cl)c1)C(CN1CCCC1)c1cccc(OCC(=O)O)c1 (configuration not stated) [ICI-204448] | 0.13

test system: Mus musculus; assay: Tested in vivo for antinociceptive activity using the mouse acetylcholine induced abdominal constriction test by subcutaneous (s.c.) administration; assay type: functional; details: Abdomen, sc

Row | SMILES | ED50 [mg/kg]
29 | CC(=O)N1CCN(C(=O)Cc2cccc([N+](=O)[O-])c2)C(CN2CC[C@H](O)C2)C1 (some centres not stated) | 0.74
30 | CC(=O)N1CCN(C(=O)Cc2ccc([N+](=O)[O-])cc2)C(CN2CC[C@H](O)C2)C1 (some centres not stated) | 4.8
31 | CC(=O)N1CCN(C(=O)Cc2ccc(C(F)(F)F)cc2)C(CN2CC[C@H](O)C2)C1 (some centres not stated) | 0.76
32 | CC(=O)N1CCN(C(=O)Cc2cc(F)cc(F)c2)C(CN2CC[C@H](O)C2)C1 (some centres not stated) | 2.5
33 | COC(=O)N1CCN(C(=O)Cc2ccc(Cl)c(Cl)c2)[C@H](CN2CCCC2)C1 | 0.0003
34 | CC(=O)N1CCN(C(=O)Cc2ccc(Cl)c(Cl)c2)C(CN2CC[C@H](O)C2)C1 (some centres not stated) | 0.7
35 | CC(=O)N1CCN(C(=O)Cc2ccc(S(C)(=O)=O)cc2)C(CN2CC[C@H](O)C2)C1 (some centres not stated) | 2.21
36 | CSc1ccc(CC(=O)N2CCN(C(C)=O)CC2CN2CC[C@H](O)C2)cc1 (some centres not stated) | 1.52
37 | CN(C(=O)Cc1ccc(Cl)c(Cl)c1)C(CN1CCCC1)c1cccc(OCC(=O)O)c1 (configuration not stated) [ICI-204448] | 4.4
